Laboratory results published in patent publication US20210302459A1, “Biosensor Storage Methods” (Queen's University at Kingston, priority 2020, published 2021).

What was measured:
Format in all cases: binding
[1] = target: T1, TLR2/6 biosensor (TLR2 and TLR6 proteins immobilized on gold electrode) (Mus musculus, UniProt Q9EPW9+Q9QUN7); test: Electrochemical impedance response (ΔRct %) of freshly prepared TLR2/6 biosensors to isolated PAMPs
T1 construct: Fc (fusion partner, Fc chimera); purchased R&D Systems Inc. 1530-TR-050 (TLR2); 1533-TR-050 (TLR6)
Procedure: As shown in FIGS. 1A-B, a TLR2/6 biosensor was prepared following the steps as shown. Specifically, TLR biosensors were prepared using DropSens gold screen printed electrode (SPE). 1-lipoic acid n-hydroxysuccinimide ester (LPA, a linker molecule) was synthesized following a published protocol (see Howarth, M., et al., Nat. Methods, 2008, 5, 397-399). LPA solution at a concentration of 2 mM was prepared using ethanol/MQ water (volume ratio of 1:1). A clean plastic petri dish was lined with a filter paper which was dampened with a 1:1 solution of ethanol and MQ. The DropSens SPE was placed on the filter paper and 50 μL of the 2 mM LPA solution was dropped onto the working electrode. The petri dish was sealed with parafilm and placed in a fridge at 277 K for 24 hours. An additional 50 μL of the 2 mM LPA solution was cast onto a working electrode and returned to the fridge for another 24 hours. After a total of 48 hours the SPE was rinsed thoroughly with ethanol and MQ water before blown dry with nitrogen. TLR2 and TLR6 proteins were individually reconstituted into solutions at a concentration of 200 μg/mL using PBS buffer (pH ˜7.4). The TLR2/6 protein mixture was prepared by mixing 100 μL of TLR2 and 100 μL of TLR6 and mixing on a vortex machine for 30 seconds in a 1.5 mL microcentrifuge tube. The SPEs were placed in petri dishes with filter papers dampened with PBS buffer (pH ˜7.4). A small drop of TLR 2/6 mixture (5 μL) was dispensed onto each working electrode and then the petri dishes were sealed with PARAFILM™ and left in the fridge at 277 K for 72 hours. The electrodes were rinsed with MQ water after the immersion and blown dry with nitrogen. An ethanolamine-tris buffer solution was prepared by dissolving 1.2 g of ethanolamine, 0.121 g tris base in 20 mL of MQ water. The pH of the solution was adjusted to 8.4 using concentrated hydrochloric acid. After the step of immobilizing TLR2/6 proteins, electrode surfaces were immersed in ethanolamine solutions for 1 hour to deactivate unreacted ester groups on the LPA monolayer.
All electrochemical measurements were preformed in faraday cages using DRP-CAC adapters for SPEs being measured. Cyclic voltammetry (CV), square wave voltammetry (SWV), and electrochemical impedance spectroscopy (EIS) measurements were completed using CHI6055E potentiostats (CH Instruments of Austin, Tex., USA). […] The experimental EIS curves were evaluated to determine the film resistance using ZSimpWin 2.0 software (available from AMETEK® Scientific Instruments of Berwyn, Pa., USA). […]
(§1) Sensor responses to different concentrations of Pam2CSK4, a gram-positive PAMP, were evaluated. […] Reduction in measured current correlated to the binding of Pam2CSK4 onto the TLR2/6 biosensor. […]

[2] = target: T1, TLR2/6 biosensor (TLR2 and TLR6 proteins immobilized on gold electrode); test: Response of TLR2/6 biosensors to Pam2CSK4 after 2 weeks storage under different conditions; details: for detection response / activity in comparison to control: 50 μM Pam2CSK4; for activity in comparison to control: −33° C.
Procedure: Referring to FIGS. 2A-C, plots are shown that provide detection responses obtained from TLR2/6 biosensors in the presence of Pam2CSK4 with no storage, and with storage under different conditions for 2 weeks (see Example 5 for details). Columns labelled ‘A’ in FIGS. 2A-C correspond to detection responses of fresh (i.e., not stored) TLR2/6 biosensors to different concentrations of Pam2CSK4. Responses of TLR2/TLR6 biosensors stored in PBS buffer at −80° C. (see columns labelled ‘E’ in FIGS. 2A-2C) for two weeks to Pam2CSK4 were equivalent to the responses from freshly prepared biosensors. That is, there was no significant loss of performance under storage condition E (see Table 1).
Biosensors as described herein (e.g., TLR2/6 proteins immobilized onto conductive surfaces) were stored under varying conditions (see Table 1) for two weeks and then challenged by the PAMP (Pam2CSK4). As shown in FIGS. 2A-2C, a comparison was done of the responses from freshly prepared and stored biosensors were compared. Calibration curves including more concentration points are shown in FIGS. 6A-6D, where ΔRCT(%) is a normalized detection signal. ΔRCT(%)=[RCT (after exp.)−RCT (before exp.)]/RCT (before exp.), where “before exp.” refers to before exposure to analyte, and “after exp.” refers to after exposure to the analyte.
Three storage temperatures were selected, 4° C., −33° C., and −80° C. Ionic salt solutions are commonly used to maintain protein folding and stability, thus, to preserve the biosensor during storage, varying buffer solutions were used.
Batch B biosensors were stored in PBS buffer of pH˜7.4 at 4° C.
The storage conditions for Batch C was −33° C. in 50% v/v PBS buffer at pH ˜7.4 and glycerol. The storage conditions for Batch D was −33° C. in 50% v/v Tris buffer pH ˜7.7 and glycerol. […] However, the activity was reduced down to 30% in comparison to control.
The storage conditions for Batch E was −80° C. in PBS buffer at pH ˜7.4.
Batch F biosensors were stored at −80° C. in the absence of any buffer solution.
Batch G biosensors were disposed in a buffer solution that included amino acids. Specifically, Batch G buffer solution included 50 mM L-Arg, 50 mM L-Glu, 1 M NaCl and 200 mM imidazole in 50 mM Tris-HCl (pH˜8.0). The solution surrounded each biosensor in Batch G and they were kept at 4° C.
Different concentrations of Pam2CSK4 were used to trigger the responses. These concentrations were 0.1 μM for FIG. 2A; 1.0 μM for FIG. 2B; and 50 μM for FIG. 2C.

[3] = target: T1, TLR2/6 biosensor (TLR2 and TLR6 proteins immobilized on gold electrode); test: Cyclic voltammetry peak current of TLR2/6 biosensors after exposure to analyte; details: concentration increased 0.1 to 50.0 μM; reduced from 147 μA
Procedure: As shown in FIGS. 1A-B, a TLR2/6 biosensor was prepared following the steps as shown. Specifically, TLR biosensors were prepared using DropSens gold screen printed electrode (SPE). 1-lipoic acid n-hydroxysuccinimide ester (LPA, a linker molecule) was synthesized following a published protocol (see Howarth, M., et al., Nat. Methods, 2008, 5, 397-399). LPA solution at a concentration of 2 mM was prepared using ethanol/MQ water (volume ratio of 1:1). A clean plastic petri dish was lined with a filter paper which was dampened with a 1:1 solution of ethanol and MQ. The DropSens SPE was placed on the filter paper and 50 μL of the 2 mM LPA solution was dropped onto the working electrode. The petri dish was sealed with parafilm and placed in a fridge at 277 K for 24 hours. An additional 50 μL of the 2 mM LPA solution was cast onto a working electrode and returned to the fridge for another 24 hours. […]
All electrochemical measurements were preformed in faraday cages using DRP-CAC adapters for SPEs being measured. […] The experimental EIS curves were evaluated to determine the film resistance using ZSimpWin 2.0 software (available from AMETEK® Scientific Instruments of Berwyn, Pa., USA). […]
as §1

T1 sequence (Q9QUN7 with tags, fused parts or gaps limits assumed): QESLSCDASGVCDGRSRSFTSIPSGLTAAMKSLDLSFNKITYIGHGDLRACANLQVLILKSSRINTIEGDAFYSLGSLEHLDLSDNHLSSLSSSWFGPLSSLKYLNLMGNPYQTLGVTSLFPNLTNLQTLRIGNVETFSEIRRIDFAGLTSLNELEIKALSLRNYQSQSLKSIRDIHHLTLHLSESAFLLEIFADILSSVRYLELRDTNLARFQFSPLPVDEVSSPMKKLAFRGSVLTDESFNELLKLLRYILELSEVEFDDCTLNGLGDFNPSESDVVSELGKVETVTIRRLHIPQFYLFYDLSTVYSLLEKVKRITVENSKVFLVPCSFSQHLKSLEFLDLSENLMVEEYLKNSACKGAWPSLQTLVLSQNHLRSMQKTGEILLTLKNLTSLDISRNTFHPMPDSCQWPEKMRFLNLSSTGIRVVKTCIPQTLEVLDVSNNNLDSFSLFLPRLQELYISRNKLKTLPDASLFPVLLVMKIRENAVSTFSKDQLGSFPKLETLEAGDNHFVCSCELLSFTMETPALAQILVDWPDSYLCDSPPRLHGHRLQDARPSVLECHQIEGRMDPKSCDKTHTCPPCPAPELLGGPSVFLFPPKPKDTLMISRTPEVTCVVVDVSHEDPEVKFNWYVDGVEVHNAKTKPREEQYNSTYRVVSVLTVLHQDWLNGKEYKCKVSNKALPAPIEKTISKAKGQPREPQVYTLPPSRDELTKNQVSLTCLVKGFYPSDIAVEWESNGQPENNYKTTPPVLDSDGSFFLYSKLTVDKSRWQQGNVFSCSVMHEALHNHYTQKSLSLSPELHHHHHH
T1 sequence (Q9EPW9 with tags, fused parts or gaps limits assumed): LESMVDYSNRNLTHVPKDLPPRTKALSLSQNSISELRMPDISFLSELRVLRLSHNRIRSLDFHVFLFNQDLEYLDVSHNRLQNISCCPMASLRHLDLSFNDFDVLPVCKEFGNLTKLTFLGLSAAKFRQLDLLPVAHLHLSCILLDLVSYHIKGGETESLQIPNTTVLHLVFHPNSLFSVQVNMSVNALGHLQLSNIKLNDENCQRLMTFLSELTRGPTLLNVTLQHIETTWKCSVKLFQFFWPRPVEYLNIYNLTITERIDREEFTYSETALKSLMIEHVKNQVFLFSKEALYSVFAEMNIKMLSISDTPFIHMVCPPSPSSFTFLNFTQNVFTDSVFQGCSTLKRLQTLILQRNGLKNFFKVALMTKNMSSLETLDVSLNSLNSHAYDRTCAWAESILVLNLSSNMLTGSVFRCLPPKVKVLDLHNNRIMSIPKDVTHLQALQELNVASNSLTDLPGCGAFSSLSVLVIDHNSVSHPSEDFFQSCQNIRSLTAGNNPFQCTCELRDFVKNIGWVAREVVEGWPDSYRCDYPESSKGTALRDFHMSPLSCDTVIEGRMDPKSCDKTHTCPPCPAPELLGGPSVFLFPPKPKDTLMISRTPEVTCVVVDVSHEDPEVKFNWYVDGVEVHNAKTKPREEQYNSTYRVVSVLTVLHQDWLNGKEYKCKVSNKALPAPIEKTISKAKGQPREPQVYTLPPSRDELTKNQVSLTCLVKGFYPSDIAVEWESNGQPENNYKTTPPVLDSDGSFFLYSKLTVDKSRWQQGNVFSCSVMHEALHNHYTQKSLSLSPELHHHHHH

Row | Substance | electrochemical response (ΔRct %) ([1]; LPS from 0.1 to 63.6 μg/ml, any concentration) [%] | detection response ([2]; freshly prepared biosensors (column A, no storage)) [%] | detection response ([2]; storage condition G: 2 weeks, 4° C., amino acid buffer pH ~8.0) [%] | response after storage ([2]; Batch B: 2 weeks, PBS buffer pH ~7.4, 4° C.) | activity in comparison to control ([2]; Batch C: 2 weeks, 50% v/v PBS/glycerol) [%] | activity in comparison to control ([2]; Batch D: 2 weeks, 50% v/v Tris/glycerol) [%] | response after storage versus control biosensor ([2]; Batch E: 2 weeks, −80° C., PBS buffer pH ~7.4, all concentrations) | response after storage ([2]; Batch F: 2 weeks, −80° C., no buffer solution) | peak current (cyclic voltammogram) after exposure [3] [μA] | electrochemical response (ΔRct %) ([1]; 0.1 μM analyte, fresh biosensors, 4 replicates) [%] | electrochemical response (ΔRct %) ([1]; 1 μM analyte, fresh biosensors, 4 replicates) [%] | electrochemical response (ΔRct %) ([1]; largest concentration, FIG. 4 comparison) [%]
1 | lipopolysaccharide [Salmonella LPS] | ≤ 40 |  |  |  |  |  |  |  |  |  |  | 
2 | Pam2CSK4 |  | 167±29 | 360±24 | no significant responses | 30 | 30 | within error of the control biosensor | lost most of their response | 96 | 24±12 | 58±13 | ~160
